Reference: patent US20220323401A1, “FORMULATIONS OF CANNABINOIDS FOR THE TREATMENT OF ACNE” (priority 2017, published 2022)

Legend:
[1] = Discoloration of CBD solutions and formulations; assay type: physicochemical; settings: by end of day 1
Text: The CBD2 material dissolved like the CBD1 therefore the CBD2 is CBD without the discoloration properties of CBD1.

[2] = Initial solubility studies of CBD in solvents; assay type: physicochemical
Experimental: First, the solubility of cannabidiol (CBD) was assessed. The powder looked granulated under the microscope. […] The conclusions from the solubility studies were that OA and IPA were very good solvents and it was surprising that IPA was so much better than ethanol.
Solubility studies: CBD dissolved at the 10% level in AE and barely 9.5% in IPM. Further exploration was not conducted due to the small amount of drug API available for non-GMP work. CBD is soluble greater than 10% but probably not in excess of 20%, as the time to dissolve additional CBD was taking considerably longer.

[3] = tested on: immortalized human sebocytes; settings: cited from earlier work
[4] = tested on: rats; settings: 5 mg/kg i.v. once daily for 4 weeks; cited from earlier work
[5] = tested on: sensitized guinea-pigs; settings: 1 mg/kg i.v.; cited from earlier work
[6] = in ethanol, reported value; cited from earlier work
[7] = molecular target: T1, human vanilloid receptor type 1 (VR1) (Homo sapiens, UniProt Q8NER1); settings: HEK-hVR1 transfected cells; cited from earlier work
T1 construct: host or cells: HEK cells transfected with hVR1 (HEK-hVR1)
T1 sequence (Q8NER1 whole entry): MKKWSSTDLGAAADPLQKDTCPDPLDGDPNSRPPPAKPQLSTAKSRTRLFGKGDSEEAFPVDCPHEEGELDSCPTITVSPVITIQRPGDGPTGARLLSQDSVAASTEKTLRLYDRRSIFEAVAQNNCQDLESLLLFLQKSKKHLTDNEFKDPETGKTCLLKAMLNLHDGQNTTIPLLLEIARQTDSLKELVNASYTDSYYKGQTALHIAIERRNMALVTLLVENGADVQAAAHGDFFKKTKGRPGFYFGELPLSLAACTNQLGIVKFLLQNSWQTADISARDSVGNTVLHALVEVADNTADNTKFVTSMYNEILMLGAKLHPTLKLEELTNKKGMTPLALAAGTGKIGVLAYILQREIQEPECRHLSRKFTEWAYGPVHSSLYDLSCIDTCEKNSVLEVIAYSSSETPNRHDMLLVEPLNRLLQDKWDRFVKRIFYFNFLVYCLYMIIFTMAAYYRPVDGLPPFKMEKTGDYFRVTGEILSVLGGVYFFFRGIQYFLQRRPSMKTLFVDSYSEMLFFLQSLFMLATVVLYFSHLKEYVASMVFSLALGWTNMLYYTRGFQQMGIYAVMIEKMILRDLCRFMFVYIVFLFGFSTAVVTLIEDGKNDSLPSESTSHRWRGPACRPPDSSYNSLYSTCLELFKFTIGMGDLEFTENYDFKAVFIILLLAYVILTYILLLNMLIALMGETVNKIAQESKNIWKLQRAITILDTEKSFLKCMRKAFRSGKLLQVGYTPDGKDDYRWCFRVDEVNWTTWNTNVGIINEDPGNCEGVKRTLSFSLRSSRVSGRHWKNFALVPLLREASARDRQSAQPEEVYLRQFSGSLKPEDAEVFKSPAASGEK

[8] = tested on: anandamide; settings: rat basophilic leukemia cells; cited from earlier work

SMILES: C=C(C)[C@@H]1CCC(C)=C[C@H]1c1c(O)cc(CCCCC)cc1O [CBD1]
- discoloration of solution [1]: colored by the end of the day

SMILES: C=C(C)[C@@H]1CCC(C)=C[C@H]1c1c(O)cc(CCCCC)cc1O [CBD2]
- discoloration of solution [1]: None of the CBD2 solutions were colored at the end of day 1

SMILES: C=C(C)C1CCC(C)=CC1c1c(O)cc(CCCCC)cc1O (stereo not shown) [CBD, 2-[3-methyl-6-(1-methylethenyl)-2-cyclohexen-1-yl]-5-pentyl-1,3-benzenediol]
- solubility of CBD ([2]; in arlamol E (AE), probably not in excess of 20%): greater than 10%
- solubility of CBD ([2]; in isopropyl myristate (IPM)): ~9.5%
- solubility of CBD ([2]; weight to weight, in ethanol): 6-7%
- solubility of CBD ([2]; weight to weight, in hexamethyldisiloxane (HDS)): 3-4%
- solubility of CBD ([2]; weight to weight, in isopropyl alcohol (IPA)): greater than 14%
- solubility of CBD ([2]; weight to weight, in mineral oil): 3-4%
- solubility of CBD ([2]; weight to weight, in oleyl alcohol (OA), did not go higher): greater than 8%
- solubility of CBD ([2]; weight to weight, in propylene glycol (PG)): 6-7%
- effects on sebocytes [3]: lipostatic, anti-proliferative, and anti-inflammatory effects
- cardiac inflammation produced by doxorubicin [4]: attenuated cardiac inflammation produced by doxorubicin
- ovalbumin-induced airway obstruction [5]: attenuated ovalbumin-induced airway obstruction
- reported solubility of CBD [6]: 3.5%
- stimulation of human VR1 [7]: maximum effect similar in efficacy to that of capsaicin
- effect on anandamide [8]: inhibit anandamide
